Reference: patent US12240853B2, “Compounds useful in HIV therapy” (GlaxoSmithKline Intellectual Property (No.2) Limited, priority 2019, dated 2025)

How the values were obtained:
[1] = test system: HIV pseudotyped virus, M184V; format: cell-based; details: U373 cells (CD4, CXCR4 or CCR5), luciferase signal after 3 days
[2] = test system: HIV pseudotyped virus (NL4-3 provirus, luciferase reporter), WT; test: PSV (pseudotyped virus) assay, WT; details: Human immunodeficiency virus 1, NL43, 72 h, read-out: WT IC50
Method: A pseudotyped virus assay (PSV) was used to assess the potency of the HIV inhibitor.
The PSV assay was performed by using U373 cells stably transformed to express human CD4, the primary receptor for HIV entry and either human CXCR4 or human CCR5 which are the co-receptors required for HIV entry as target cells for infection. […] This dose-range was applied to U373 cells and the pre-made pseudotyped virus added. The amount of luciferase signal produced after 3 days of culture was used to reflect the level of pseudotyped virus infection. An IC50, or the concentration of inhibitor required to reduce PSV infection by 50% from the infection containing no inhibitor was calculated. […] IC50 values were determined from a 10 point dose response curve using 3-4-fold serial dilution for each compound, which spans a concentration range>1000 fold.
These values are plotted against the molar compound concentrations using the standard four parameter logistic equation: y=((Vmax*x^n)/(K^n+x^n))+Y2

Molecule C#C[C@]1(COC(=O)CCCCCCCCC)O[C@@H](n2cnc3c(N)nc(F)nc32)C[C@@H]1OC(=O)CCCCCCCCC [Example 18, (2R,3S,5R)-5-(6-amino-2-fluoro-9H-purin-9-yl)-2-((decanoyloxy)methyl)-2-ethynyltetrahydrofuran-3-yl Decanoate] has an IC50 [1] of 73 nM and an IC50 [2] of 10 nM.
